Data on three compounds can be found in article PMC4008364, “Alleviation of behavioral hypersensitivity in mouse models of inflammatory pain with two structurally different casein kinase 1 (CK1) inhibitors” (Molecular Pain, 2014).

In assay [1] the target is T1, human CK1α (Homo sapiens, UniProt P48729).
T1 construct: Full-length human CK1α, CK1γ1, CK1γ2, CK1γ3; GST (N); purchased Carna Biosciences, Inc; host or cells: baculovirus system (insect cells)
Put plainly: In vitro kinase assay (QuickScout mobility shift assay), CK1α. Format: biochemical. The text has this:
(§1) […]; Carna Biosciences, Inc., Kobe, Japan). Detailed information on the assay condition is available on the website of Carna Biosciences (http://www.carnabio.com). Full-length human CK1α, CK1γ1, CK1γ2, CK1γ3 and catalytic domain of human CK1ϵ were expressed as N-terminal GST-fusion protein using baculovirus system, and purified by using glutathione sepharose chromatography. Catalytic domain of CK1δ was expressed as N-terminal GST-fusion protein in E. coli, and purified by using glutathione sepharose chromatography.

Assay [2] addresses T2, CK1δ (Homo sapiens, UniProt P48730).
T2 construct: Catalytic domain of CK1δ was expressed as N-terminal GST-fusion protein in E. coli; GST (N); purchased Carna Biosciences, Inc; host or cells: E. coli
T2 sequence (P48730 9-277 limits assumed): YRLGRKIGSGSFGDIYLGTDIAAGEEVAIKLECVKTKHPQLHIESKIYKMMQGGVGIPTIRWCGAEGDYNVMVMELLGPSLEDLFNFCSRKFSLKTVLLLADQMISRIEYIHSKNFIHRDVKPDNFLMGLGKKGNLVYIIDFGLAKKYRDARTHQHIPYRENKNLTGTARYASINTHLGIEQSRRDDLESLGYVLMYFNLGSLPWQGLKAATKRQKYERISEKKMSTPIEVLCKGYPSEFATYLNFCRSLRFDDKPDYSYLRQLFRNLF
Put plainly: In vitro kinase assay (QuickScout mobility shift assay), CK1δ. In kind it is biochemical. From the text: (§2) Detailed information on the assay condition is available on the website of Carna Biosciences (http://www.carnabio.com). Full-length human CK1α, CK1γ1, CK1γ2, CK1γ3 and catalytic domain of human CK1ϵ were expressed as N-terminal GST-fusion protein using baculovirus system, and purified by using glutathione sepharose chromatography. Catalytic domain of CK1δ was expressed as N-terminal GST-fusion protein in E. coli, and purified by using glutathione sepharose chromatography.

The target in assay [3] is T3, human CK1ϵ (Homo sapiens, UniProt P49674).
T3 construct: catalytic domain of human CK1ϵ were expressed as N-terminal GST-fusion protein; GST (N); purchased Carna Biosciences, Inc; host or cells: baculovirus system (insect cells)
T3 sequence (P49674 9-277 limits assumed): T2 sequence (P48730 9-277 limits assumed) with T19A, D20N, A23S, I47F, T59S, R61K, A241S
Kind of assay: In vitro kinase assay (QuickScout mobility shift assay), CK1ϵ. In kind it is biochemical. The following applies: substrate peptide CKtide; ATP at Km 16 μM; average of duplicated experiments.
From the text: as §2

Assay [4] addresses T4, human CK1γ1 (Homo sapiens, UniProt Q9HCP0).
T4 construct: Full-length human CK1α, CK1γ1, CK1γ2, CK1γ3; GST (N); purchased Carna Biosciences, Inc; host or cells: baculovirus system (insect cells)
Kind of assay: In vitro kinase assay (QuickScout mobility shift assay), CK1γ1. In kind it is biochemical.
From the text: as §1

In assay [5] the target is T5, human CK1γ2 (Homo sapiens, UniProt P78368).
T5 construct: Full-length human CK1α, CK1γ1, CK1γ2, CK1γ3; GST (N); purchased Carna Biosciences, Inc; host or cells: baculovirus system (insect cells)
T5 sequence (P78368 whole entry): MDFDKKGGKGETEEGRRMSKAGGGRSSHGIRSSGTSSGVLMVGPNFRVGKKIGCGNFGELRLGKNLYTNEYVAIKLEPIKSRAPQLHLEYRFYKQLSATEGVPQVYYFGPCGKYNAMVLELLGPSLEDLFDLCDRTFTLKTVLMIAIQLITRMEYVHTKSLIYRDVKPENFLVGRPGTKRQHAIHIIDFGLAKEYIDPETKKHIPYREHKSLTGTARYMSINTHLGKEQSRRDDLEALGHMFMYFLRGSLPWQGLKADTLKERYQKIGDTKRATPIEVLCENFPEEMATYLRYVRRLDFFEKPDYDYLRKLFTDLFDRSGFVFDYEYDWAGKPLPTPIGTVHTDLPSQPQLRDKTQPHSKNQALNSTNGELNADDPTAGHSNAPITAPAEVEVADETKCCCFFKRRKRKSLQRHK
Put plainly: In vitro kinase assay (QuickScout mobility shift assay), CK1γ2. Format: biochemical.
From the text: as §2

Assay [6] has as its target T6, human CK1γ3 (Homo sapiens, UniProt Q9Y6M4).
T6 construct: Full-length human CK1α, CK1γ1, CK1γ2, CK1γ3; GST (N); purchased Carna Biosciences, Inc; host or cells: baculovirus system (insect cells)
Kind of assay: In vitro kinase assay (QuickScout mobility shift assay), CK1γ3. The following applies: substrate peptide CKtide; ATP at Km 3.2 μM; average of duplicated experiments. Format: biochemical.
From the text: as §2

Assay [7] relates to carrageenan-induced inflammatory pain in mice. Put plainly: Carrageenan-induced acute inflammatory pain behaviors, intrathecal injection. Format: in vivo, mouse. The following applies: for withdrawal latency of the ipsilateral hind paw (thermal hyperalgesia), carrageenan / withdrawal threshold of the ipsilateral hind paw (mechanical allodynia), carrageenan: i.t., IC261 0.1-1 nmol, TG003 0.1-100 pmol. How it is done: (§3) Male C57BL/6 J mice (5 weeks old) were purchased from Clea Japan, Inc. (Tokyo, Japan) and housed under controlled temperature (24 ± 1°C) and humidity (55 ± 10%) with a 12-hour light-dark cycle with food and water freely available. The animal experiments were approved by the Animal Care Committees of Tokyo Medical and Dental University (approval No. 0090173) and Kagoshima University (approval No. MD10053), and were conducted in accordance with the ethical guidelines for the study of experimental pain in conscious animals published by the International Association of the Study of Pain (1995) and the European Communities Council Directive of 24 November, 1986 (86/609/EEC).
(§4) To produce acute and persistent inflammatory pain, carrageenan (2% lambda carrageenan in saline, 25 μl, Sigma, St. Louis, MO) and complete Freund’s adjuvant (CFA, 25 μl, Sigma) were injected into the plantar surface of the right hindpaw under light halothane anesthesia, respectively. Control mice were treated with saline or incomplete Freund’s adjuvant (IFA, Sigma), respectively. Mechanical allodynia and thermal hyperalgesia were measured using the Dynamic Plantar Aesthesiometer (Ugo Basile, Comerio VA, Italy) and the Paw Thermal Stimulator (UCSD, San Diego, CA, USA), respectively as described. In CFA model, these behavioral experiments were conducted 3 days after the injection. Intrathecal (i.t.) injection was given in a volume of 5 μl by percutaneous puncture through an intervertebral space at the level of the 5th or 6th lumbar vertebra, according to a previously reported procedure. An investigator, who was unaware of the drug treatment, performed all of the behavioral experiments.

Assay [8] relates to CFA-induced inflammatory pain in mice. Put plainly: CFA-induced persistent inflammatory pain behaviors, intrathecal injection. In kind it is in vivo, mouse. The following applies: for withdrawal latency of the ipsilateral hind paw (thermal hyperalgesia), CFA / withdrawal threshold of the ipsilateral hind paw (mechanical allodynia), CFA: i.t., IC261 0.1-1 nmol, TG003 0.1-100 pmol, 3 days after CFA. How it is done:
as §3, §4

Assay [9] relates to substantia gelatinosa neurons. Kind of assay: Whole-cell patch-clamp recording of sEPSCs in spinal cord slices. In kind it is cell-based, mouse. The following applies: for frequency and amplitude of sEPSCs, control mice: 1 μM superfusion, slices from control mice, holding potential -70 mV; for mean frequency of sEPSCs in inflammatory pain model mice: 1 μM, carrageenan- and CFA-inflamed mice. How it is done:
(§5) Adult mouse spinal cord slices were prepared according to the method of Yoshimura & Jessell. Briefly, 6 hours after carrageenan or saline injection, and 3 days after CFA or IFA injection, transverse slices (thickness, 800-900 μm) of the L5 spinal segments with the L5 dorsal root attached were cut on a vibrating blade microtome. The slices were superfused with Krebs solution (10-15 ml/min) saturated with 95% O2 and 5% CO2 at 36 ± 1°C. The composition of Krebs solution was as follows (in mM): NaCl 117; KCl 3.6; NaHCO3 25; NaH2PO4 1.2; CaCl2 2.5; MgCl2 1.2, and glucose 11 (pH 7.4 after gas saturation).
Blind whole-cell patch-clamp recordings were made from the lamina II (substantia gelatinosa: SG) neurons ipsilateral to carrageenan, CFA, or vehicle (saline or IFA) injection in voltage clamp mode. Patch pipettes were fabricated from thin-walled, borosilicate, glass-capillary tubing (1.5 mm o.d., World Precision Instruments). After establishing the whole-cell configuration, neurons were held at the potential of -70 mV to record spontaneous excitatory postsynaptic currents (sEPSCs) and at the potential of 0 mV to record spontaneous inhibitory postsynaptic currents (sIPSC). Under these conditions, GABA- and glycine-mediated IPSCs and glutamate-mediated EPSCs, respectively, were negligible, because these holding potential were close to the reversal potentials of IPSCs and EPSCs, respectively. Recording electrodes were filled with either potassium gluconate-based solution (in mM: K-gluconate 135; KCl 5; CaCl2 0.5; MgCl2 2; EGTA 5; HEPES 5; ATP-Mg 5; adjusted with KOH to pH 7.2) to investigate EPSCs, or Cs-based solution (in mM: Cs2SO4 110; tetraethylammonium 5; CaCl2 0.5; MgCl2 2; EGTA 5; HEPES 5; ATP-Mg 5; adjusted with CsOH to pH 7.2) to examine IPSCs. The resistance of a typical patch pipette is 5-10 MΩ. Membrane currents were amplified with an Axopatch 200B amplifier (Molecular Devices, Sunnyvale, CA, USA) in voltage-clamp mode. Signals were low-pass filtered at 5 kHz and digitized at 333 kHz with an A/D converter (Digidata 1322, Molecular Devices). Data were stored with a personal computer using pCLAMP10 software and analyzed with Mini Analysis software (Synaptosoft Inc., Decatur, GA, USA).
(§6) The average values of both frequency and amplitude of sEPSCs or sIPSCs during the control (1 min) and 5-10 min after the drug application (1 min period after the attainment of steady effect of each drug) were calculated and quantified as relative changes in frequency and amplitude.
(In patch-clamp work, channel activity is measured electrically.)

The subject of assay [10] is substantia gelatinosa neurons. Put plainly: Whole-cell patch-clamp recording of sIPSCs in spinal cord slices. The following applies: 1 μM, holding potential 0 mV. Format: cell-based, mouse. How it is done: as §5
Blind whole-cell patch-clamp recordings were made from the lamina II (substantia gelatinosa: SG) neurons ipsilateral to carrageenan, CFA, or vehicle (saline or IFA) injection in voltage clamp mode. Patch pipettes were fabricated from thin-walled, borosilicate, glass-capillary tubing (1.5 mm o.d., World Precision Instruments). […] Data were stored with a personal computer using pCLAMP10 software and analyzed with Mini Analysis software (Synaptosoft Inc., Decatur, GA, USA).
as §6

The target of assay [11] is T7, CK1ϵ (Homo sapiens, UniProt P49674).
T7 construct: F2A peptide (self-cleaving link to EGFP; its remnant stays on the CK1 C-terminus) (C); expressed in transfected cells; co-expressing mCherry-PER3
T7 sequence (P49674 whole entry): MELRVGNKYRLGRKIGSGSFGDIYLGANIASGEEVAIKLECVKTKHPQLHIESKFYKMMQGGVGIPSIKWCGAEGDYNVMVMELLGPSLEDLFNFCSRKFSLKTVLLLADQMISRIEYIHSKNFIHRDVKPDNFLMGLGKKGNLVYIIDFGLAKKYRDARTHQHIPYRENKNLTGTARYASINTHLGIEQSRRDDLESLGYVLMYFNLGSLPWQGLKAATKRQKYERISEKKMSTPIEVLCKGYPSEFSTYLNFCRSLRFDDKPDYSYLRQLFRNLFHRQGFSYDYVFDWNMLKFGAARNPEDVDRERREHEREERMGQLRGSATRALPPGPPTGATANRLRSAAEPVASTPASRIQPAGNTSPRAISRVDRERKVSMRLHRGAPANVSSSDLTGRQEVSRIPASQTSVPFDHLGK
Put plainly: PER3 nuclear translocation assay, HEK293 cells expressing CK1ϵ. In kind it is cell-based. The following applies: 1 hour pre-incubation, 8 hours doxycycline.

The subject of assay [12] is Clk1. Details: method as in PMID 15010457. The following applies: range given for Clk1 and 4 isoforms together; read-out: IC50 against Clk1; cited from earlier work.
Assay [13] has as its target CK1δ (Homo sapiens, UniProt P48730). Put plainly: PER3 nuclear translocation assay, HEK293 cells expressing CK1δ. The following applies: 30 μM, 1 hour pre-incubation, 8 hours doxycycline.

The structures appear in SMILES notation. Residue numbers refer to the chain shown, from its start. Read-outs that look alike come from different tables or passages of the source.

T1 sequence (P48729 whole entry): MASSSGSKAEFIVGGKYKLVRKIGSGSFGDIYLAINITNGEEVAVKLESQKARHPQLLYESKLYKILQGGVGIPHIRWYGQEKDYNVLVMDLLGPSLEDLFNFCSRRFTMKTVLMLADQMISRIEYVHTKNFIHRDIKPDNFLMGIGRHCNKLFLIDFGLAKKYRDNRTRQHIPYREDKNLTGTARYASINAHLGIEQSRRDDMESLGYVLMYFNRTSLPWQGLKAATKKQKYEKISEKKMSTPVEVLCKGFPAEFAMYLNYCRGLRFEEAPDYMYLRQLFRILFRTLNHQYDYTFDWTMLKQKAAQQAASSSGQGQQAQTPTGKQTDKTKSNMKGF
T4 sequence (Q9HCP0 whole entry): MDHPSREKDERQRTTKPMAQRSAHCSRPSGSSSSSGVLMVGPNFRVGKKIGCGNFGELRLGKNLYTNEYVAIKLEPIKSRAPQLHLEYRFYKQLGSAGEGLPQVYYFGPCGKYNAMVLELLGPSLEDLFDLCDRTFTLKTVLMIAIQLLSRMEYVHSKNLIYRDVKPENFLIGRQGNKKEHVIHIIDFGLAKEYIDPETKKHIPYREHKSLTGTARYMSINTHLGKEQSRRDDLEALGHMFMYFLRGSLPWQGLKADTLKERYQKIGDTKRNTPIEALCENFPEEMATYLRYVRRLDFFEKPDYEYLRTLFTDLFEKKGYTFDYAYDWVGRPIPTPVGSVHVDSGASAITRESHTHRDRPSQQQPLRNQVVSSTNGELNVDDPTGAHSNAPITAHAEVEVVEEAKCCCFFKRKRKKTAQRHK
T6 sequence (Q9Y6M4 whole entry): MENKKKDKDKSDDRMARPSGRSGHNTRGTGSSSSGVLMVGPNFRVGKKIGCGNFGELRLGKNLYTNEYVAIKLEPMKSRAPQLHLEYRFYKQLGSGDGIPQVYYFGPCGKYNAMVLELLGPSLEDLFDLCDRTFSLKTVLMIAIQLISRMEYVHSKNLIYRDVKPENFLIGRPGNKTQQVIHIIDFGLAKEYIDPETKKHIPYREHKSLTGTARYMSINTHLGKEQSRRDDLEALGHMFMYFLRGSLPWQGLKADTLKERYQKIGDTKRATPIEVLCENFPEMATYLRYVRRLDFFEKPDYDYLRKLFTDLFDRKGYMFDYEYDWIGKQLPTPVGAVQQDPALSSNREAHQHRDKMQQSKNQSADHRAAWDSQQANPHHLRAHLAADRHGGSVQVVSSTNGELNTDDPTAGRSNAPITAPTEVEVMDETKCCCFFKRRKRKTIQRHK

Take `COc1cc(OC)c(C=C2C(O)=Nc3ccccc32)c(OC)c1` [IC261]: the IC50 (in general, the concentration that gives 50% inhibition) in [1] was 190 nM; in [2] it was 600 nM; in assay [3], 860 nM; in assay [4], > 30000 nM; in assay [5], > 30000 nM; in assay [6], > 30000 nM. Moreover, the “withdrawal latency of the ipsilateral hind paw (thermal hyperalgesia), carrageenan” value in assay [7] is “dose-dependently increased”. Besides, the “withdrawal threshold of the ipsilateral hind paw (mechanical allodynia), carrageenan” value in assay [7] was “dose-dependently increased”. Further, the “development of thermal hyperalgesia induced by carrageenan” value in assay [7] (spinal preemptive treatment, i.t. 30 min before carrageenan) is “dose-dependently attenuated”. For the same compound, the “withdrawal latency of the ipsilateral hind paw (thermal hyperalgesia), CFA” value in assay [8] is “dose-dependently increased”. Moreover, in [8], the “withdrawal threshold of the ipsilateral hind paw (mechanical allodynia), CFA” value is recorded as “dose-dependently increased”. Also, the “frequency and amplitude of sEPSCs, control mice” value in assay [9] was “altered neither the frequency nor the amplitude of sEPSCs”. Besides, the “mean frequency of sEPSCs in inflammatory pain model mice” value in assay [9] is on record as “decreased”. The “sIPSCs from the inflamed mice” value in assay [10] (carrageenan- and CFA-inflamed mice) is recorded as “did not affect sIPSCs”. In addition, the “mean amplitude of control sIPSCs” value in [10] (control mice) is “slight but significant reduction”.
As to `Nc1nccc(-c2c(-c3ccc(F)cc3)ncn2C2CCCCC2)n1` [PF-670462], in assay [11] (1 μM), the “CK1ϵ-induced nuclear translocation of mCherry-PER3” value is “also inhibited the nuclear translocation”.
As for `CCN1/C(=C/C(C)=O)Sc2ccc(OC)cc21` [TG003], the IC50 in [1] (substrate peptide CKtide, ATP at Km 4.1 μM, average of duplicated experiments, read-out: IC50 on the kinase activity of CK1α) came to 330 nM. For the same compound, in [4] (substrate peptide CKtide, ATP at Km 6.3 μM, average of duplicated experiments, read-out: IC50 on the kinase activity of CK1γ1), the IC50 is 1500 nM. Moreover, in assay [11] (30 μM), the “CK1ϵ-induced nuclear translocation of mCherry-PER3” value is listed as “inhibited the nuclear translocation of mCherry-PER3”. Besides, in assay [7], the “withdrawal latency of the ipsilateral hind paw (thermal hyperalgesia), carrageenan” value is listed as “dose-dependently increased” and the “withdrawal threshold of the ipsilateral hind paw (mechanical allodynia), carrageenan” value was “dose-dependently increased”. Moreover, in [8] (1 pmol i.t.), the CFA-induced mechanical allodynia result is recorded as “significantly reversed” and the CFA-induced thermal hyperalgesia result is recorded as “did not affect”. Also, in [8], the “withdrawal latency of the ipsilateral hind paw (thermal hyperalgesia), CFA” value is “dose-dependently increased” and the “withdrawal threshold of the ipsilateral hind paw (mechanical allodynia), CFA” value was “dose-dependently increased”. In assay [9], the “frequency and amplitude of sEPSCs, control mice” value is recorded as “altered neither the frequency nor the amplitude of sEPSCs”; the “mean frequency of sEPSCs in inflammatory pain model mice” value is given as “decreased”. Further, the IC50 in assay [12] was […]. Also, the “CK1δ-induced nuclear translocation of mCherry-PER3” value in assay [13] is recorded as “inhibited the nuclear translocation of mCherry-PER3”.
